From US6824801B2, “Process for producing foods having good keeping qualities and food keeping agents” (Nihon Starch Co., Ltd., priority 2000, dated 2004)
Like-named read-outs stand apart in the source and are kept apart here.

Columns and labels:
[1] = test system: Bacillus subtillis IAM 1249; assay: minimum growth-inhibiting concentration (MIC) of AF, influence of heat treatment (Table A); assay type: cell-based
Excerpt: (§1) As described in the first process, 1,5-D-anhydrofructose is an antibacterial substance having a high safety, but the present inventors have found to obtain the following advantages when 1,5-D-anhydrofructose is previously subjected to a heat treatment. That is, an antibacterial power of 1,5-D-anhydrofructose can be further increased, and the antibacterial power is developed at a low concentration of 1,5-D-anhydrofructose, as compared with a case where 1,5-D-anhydrofructose is not subjected to the heat treatment. Consequently, a food containing 1,5-D-anhydrofructose is difficult to putrefy and at the same time, the antibacterial spectrum becomes wider.

[2] = test system: Escherichia coli NRIC 1023; assay: as above; assay type: cell-based
Excerpt: as §1

[3] = test system: Salmonella typhimurium IFO 12529; assay: as above; assay type: cell-based
Excerpt: as §1

[4] = test system: Staphylococcus aureus FDA 209P; assay: as above; assay type: cell-based
Excerpt: as §1

[5] = test system: Streptococcus lactis IAM 1249; assay: as above; assay type: cell-based
Excerpt: as §1

[6] = test system: Pseudomonas aeruginosa IFO 12680; assay: number of bacteria killed by heating in soybean-casein digest broth medium pH 5.5 (FIG. 1); assay type: cell-based; conditions: 1% 1,5-D-anhydrofructose, heating at 55° C. for ten minutes, pH 5.5 broth
Excerpt: FIG. 1 is a curve indicating the number of Pseudomonas aeruginosa IFO 12680 killed by heating.
(§2) FIGS. 1 and 2 show curves each indicating the number of gram-negative bacteria killed in a soybean-casein digest broth medium (pH of 5.5) by heating.

[7] = test system: Salmonella typhimurium IFO 12529; assay: number of bacteria killed by heating in soybean-casein digest broth medium pH 5.5 (FIG. 2); assay type: cell-based; conditions: 1% 1,5-D-anhydrofructose, heated at 60° C. for 10 minutes, pH 5.5 broth
Excerpt: FIG. 2 is a curve indicating the number of which Salmonella typhimurium IFO 12529 killed by heating.
as §2

[8] = test system: Bacillus subtillis IAM 1249; assay: Test Example 1 antibacterial power test using turbidimetry (Table 12); assay type: cell-based; conditions: for OD^660 (turbidity): shake culture 37° C., 72 hours
Procedure: AF was subjected to an antibacterial power test using a turbidimetry. More specifically, a soybean-casein digest broth medium (having a pH value of 5.5) previously sterilized and 1% of AF were placed into a test tube and heated under heating conditions shown in Table 12. Then, 8.7×10^4 CFU of Bacillus subtillis IAM 1249 was inoculated into the test tube, shake culture was carried out at 37° C. for 72 hours, and the turbidity (OD, 660 nm) was then measured.

[9] = test system: Bacillus subtillis IAM 1249; assay: Test Example 2 number of living bacteria in noodle soup preserved at 30° C. (FIG. 3)
Procedure: FIG. 3 is a graph showing the number of Bacillus. subtillis IAM 1249 living in a noodle soup under preservation.
(§3) This will be described in detail later in Test Example 2.
(§4) 40 Grams of a powdery soup stock (produced by Yamaki, Co.) and 200 ml of commercially available soy sauce were added to 1,000 ml of water to prepare a noodle soup. Bacteria were inoculated into the noodle soup, and the noodle soup was preserved at 30° C., and then, the number of living bacteria was counted. FIG. 3 is a curve showing the number of living Bacillus subtillis IAM 1249 (which will be simply referred to as B. subtillis hereinafter), and FIG. 4 is a curve showing the number of living Escherichia coli NRIC 1023 (which will be simply referred to as E. coli hereinafter). In FIGS. 3 and 4, A-1 and A′-1 are curves each indicating the number of living B. subtillis or E. colli inoculated into the unsterilized noodle soup. In the cases of A-1 and A′-1,1,5-D-anhydrofructose was not added, and P and P′ indicate the number of bacteria initially generated.
(§5) A-2 and A′-2 are curves each indicating the number of living B. subtillis or E. colli inoculated into the noodle soup sterilized by heating in hot water at […]. for 10 minutes. In the cases of A-2 and A′-2,1,5-D-anhydrofructose was not added, and the numbers of bacteria initially generated are indicated by Q and Q′, respectively. […]

[10] = test system: Escherichia coli NRIC 1023; assay: Test Example 2 number of living bacteria in noodle soup preserved at 30° C. (FIG. 4)
Procedure: FIG. 4 is a graph showing the number of Escherichia coli NRIC 1023 living in a noodle soup under preservation.
as §3, §4, §5

Lactobacillus casei = assay: Test Example 3 swelling of noodle soup sacks preserved at 30° C. (Table 13); conditions: 2% of AF
Procedure: 40 Grams of a powdery soup stock (produced by […], Co.), 200 ml of commercially available soy sauce and 2% of AF were added to 1000 ml of water. The mixture was aseptically filtered and charged in an amount of 100 ml into each of ten polypropylene sacks previously sterilized. Meanwhile, 1 ml of the noodle soup (containing a number of living bacteria of 3.1×10^6/ml) deteriorated due to “swelling” caused by Lactobacillus casei was charged into each of the above-prepared ten sacks, which were then sealed so as air not to be left therein. The ten sacks were divided into two groups each consisting of five sacks. One of the groups was not heated, and the other group was heated in a hot water at 55° C. for 10 minutes. Then, both of them were preserved at 30° C., and the occurrence of “swelling” was observed.

Bacillus subtillis = assay: Example 11 curry preservability, sensory evaluation test (Table 14); conditions: curry with AF
Procedure: 7 Parts of beef, 57 parts of vegetables (12 parts of potato, 40 parts of onion and 5 parts of carrot), 1 part of a curry powder, 6 parts of fatty oil, 0.2 parts of sodium glutamate, 1 part of starch and 40 parts of a soup were mixed together, and the mixture was heated and cooked at 80° C. for 1 hour. The resulting product was a curry containing a somewhat larger amount of soup and having a low viscosity. The following operations were conducted in a clean bench. The curry was subdivided each in an amount of 95 grams into ten plugged vessels previously sterilized. The ten vessels were divided into two groups each consisting of five vessels. A 30% solution of AF subjected to an aseptic filtration was added in an amount of 5 g into each of the vessels in one of the groups. Then, 2×10 ^5 nutritious cells of Bacillus subtillis incubated previously were inoculated into the group, and was mixed uniformly. Five grams of a 30% solution of AF subjected to an aseptic filtration was added into each of the vessels in the other group. Then, 2×10^5 nutritious cells of Bacillus subtillis incubated previously were inoculated into the group, and after mixing uniformly, heated at 60° C. for 10 minutes and then cooled rapidly. Both of the groups were preserved at […], and the preservability of them was compared by a sensory evaluation test.

many bacteria = conditions: against many bacteria; 'has been recognized'; cited from earlier work
[11] = noodle soup, heating at 550° C. for 10 minutes after addition of 1,5-D-anhydrofructose vs heating without it

What does the source list for `O=C1CO[C@H](CO)[C@@H](O)[C@@H]1O` [AF, 1,5-D-anhydrofructose]?
minimum growth-inhibiting concentration (MIC) ([1]; listed as non-heated AF): 3%; minimum growth-inhibiting concentration (MIC) ([2]; listed as non-heated AF): 5%; minimum growth-inhibiting concentration (MIC) ([3]; listed as non-heated AF): 4%; minimum growth-inhibiting concentration (MIC) ([4]; listed as non-heated AF): 1.5%; minimum growth-inhibiting concentration (MIC) ([5]; listed as non-heated AF): 3%; number of bacteria remaining alive relative to the control [6]: one tenth of that in the control; number of bacteria remaining alive relative to the control [7]: one hundredth or less of that in the control; OD^660 (turbidity) ([8]; 1% of AF added and not heated): 0.836; OD^660 (turbidity) ([8]; 1% of AF, heated at 55° C. for 10 minutes): 0.513; OD^660 (turbidity) ([8]; 1% of AF, heated at 60° C. for 10 minutes): 0.437; OD^660 (turbidity) ([8]; 1% of AF, heated at 80° C. for 10 minutes): 0.355; OD^660 (turbidity) ([8]; 1% of AF, heated at 90° C. for 10 minutes): 0.338; antibacterial power relative to the control with 1% of AF added and not heated ([8]; heated at 55° C. for 10 minutes after addition of 1% of AF, (1.160-0.513)/(1.160-0.836)): about two times; proliferation of bacteria during preservation ([9]; noodle soup containing 1,5-D-anhydrofructose, 30° C., B-2 vs B-3): suppressed; number of living bacteria initially generated (from Q to R) [9, 11]: reduced by about one figure; proliferation of bacteria during preservation ([10]; noodle soup containing 1,5-D-anhydrofructose, 30° C., B′-2 vs B′-3): suppressed; number of living bacteria initially generated (from Q′ to R′) [10, 11]: reduced by about one figure; number of normal sacks / total number of sacks (Lactobacillus casei; heated at 55° C. for 10 minutes, 5 preservation days at 30° C.): 5/5; number of normal sacks / total number of sacks (Lactobacillus casei; heated at 55° C. for 10 minutes, 10 preservation days at 30° C.): 3/5; number of normal sacks / total number of sacks (Lactobacillus casei; heated at 55° C. for 10 minutes, 15 preservation days at 30° C.): 1/5; number of normal sacks / total number of sacks (Lactobacillus casei; heated at 55° C. for 10 minutes, 20 preservation days at 30° C.): 0/5; number of normal sacks / total number of sacks (Lactobacillus casei; not heated, 5 preservation days at 30° C.): 4/5; number of normal sacks / total number of sacks (Lactobacillus casei; not heated, 10 preservation days at 30° C.): 0/5; number of normal vessels / total number of vessels (Bacillus subtillis; Heated at 60° C. for 10 minutes, preservation time 12): 5/5; number of normal vessels / total number of vessels (Bacillus subtillis; Heated at 60° C. for 10 minutes, preservation time 24): 5/5; number of normal vessels / total number of vessels (Bacillus subtillis; Heated at 60° C. for 10 minutes, preservation time 36): 5/5; number of normal vessels / total number of vessels (Bacillus subtillis; Heated at 60° C. for 10 minutes, preservation time 48): 5/5; number of normal vessels / total number of vessels (Bacillus subtillis; Heated at 60° C. for 10 minutes, preservation time 60): 0/5; number of normal vessels / total number of vessels (Bacillus subtillis; Not heated, preservation time 12): 5/5; number of normal vessels / total number of vessels (Bacillus subtillis; Not heated, preservation time 24): 5/5; number of normal vessels / total number of vessels (Bacillus subtillis; Not heated, preservation time 36): 0/5; concentration exhibiting proliferation-inhibiting effect (many bacteria): ≤ 1%

With `O=C1CO[C@H](CO)[C@@H](O)[C@@H]1O` [heated AF, 1,5-D-anhydrofructose] as the compound, how does the “minimum growth-inhibiting concentration (MIC)” value [1] read?
The value was 1%.

What about the “minimum growth-inhibiting concentration (MIC)” value [2] of the same compound?
Its value is 2%.

What about the “minimum growth-inhibiting concentration (MIC)” value [3] of the same compound?
The value was 2%.

And the “minimum growth-inhibiting concentration (MIC)” value [4]?
Its value is 0.5%.

And the “minimum growth-inhibiting concentration (MIC)” value [5]?
Its value is 1%.
